From ChEMBL document CHEMBL2203033, “Design and synthesis of novel DFG-out RAF/vascular endothelial growth factor receptor 2 (VEGFR2) inhibitors: 3. Evaluation of 5-amino-linked thiazolo[5,4-d]pyrimidine and thiazolo[5,4-b]pyridine derivatives” (Bioorg Med Chem, 2012)
pIC50: −log10 of the molar value. Calls of active or inactive are those of the source. The calls are words filed in the database; no cut-off is given here.

Experiments:
[1] = Intrinsic clearance in human liver microsomes at 1 umol/L after 20 mins in presence of NADPH; format: ADME, Microsome; details: read-out: CLH
[2] = molecular target: T1, Serine/threonine-protein kinase B-raf (Homo sapiens, UniProt P15056, V600E); test: Inhibition of BRAF V600E mutant in human HT-29 cells assessed as reduction of […] phosphorylation; format: cell-based
[3] = molecular target: Vascular endothelial growth factor receptor 2 (Homo sapiens, UniProt P35968); test: Inhibition of VEGFR2
[4] = molecular target: T1, Serine/threonine-protein kinase B-raf; test: Inhibition of recombinant BRAF V600E mutant using […] and [gamma-32P]ATP as substrate after 30 mins by scintillation counting
Rattus norvegicus [5] = test: Toxicity in human HT-29 cells xenografted nude rat at 25 mg/kg, po qd for 2 weeks; format: organism-based; design: dose 25 mg/kg, route oral; details: in vivo, 336 h
HT-29 = test: Antitumor activity against human HT-29 cells xenografted in nude rat assessed as tumor regression at 25 mg/kg, po qd for 2 weeks; format: functional
[6] = Cmax in rat at 25 mg/kg, po; format: ADME, organism-based; design: dose 25 mg/kg, route oral; details: in vivo
[7] = Oral bioavailability in rat at 25 mg/kg; format: ADME, organism-based; details: in vivo
[8] = AUC (0 to 24 hrs) in rat at 25 mg/kg, po; format: ADME, organism-based; design: time < 24 hr, dose 25 mg/kg, route oral; details: plasma
[9] = Mean residence time in rat at 25 mg/kg, po; format: ADME, organism-based; design: dose 25 mg/kg, route oral; details: in vivo
[10] = Mean residence time in rat at 1 mg/kg, iv; format: ADME, organism-based; design: dose 1 mg/kg, route intravenous; details: in vivo
[11] = AUC (0 to 24 hrs) in rat at 1 mg/kg, iv; format: ADME, organism-based; design: time < 24 hr, dose 1 mg/kg, route intravenous; details: plasma
[12] = Total clearance in rat at 1 mg/kg, iv; format: ADME, organism-based; design: dose 1 mg/kg, route intravenous; details: in vivo
[13] = Volume of distribution at steady state in rat at 1 mg/kg, iv; format: ADME, organism-based; design: dose 1 mg/kg, route intravenous; details: in vivo, read-out: Vdss
[14] = Thermodynamic solubility of the compound in Japanese pharmacopoeia 2nd fluid at pH 6.8 presence of 20 mmol/L of bile acid; format: physicochemical; details: read-out: Therm_solubility
[15] = Intrinsic clearance in mouse liver microsomes at 1 umol/L after 20 mins in presence of NADPH; format: ADME, Microsome; details: read-out: CLH
[16] = molecular target: Mitogen-activated protein kinase kinase kinase 1 (Homo sapiens, UniProt Q13233); test: Inhibition of MEKK1
[17] = molecular target: Glycogen synthase kinase-3 beta (Homo sapiens, UniProt P49841); test: Inhibition of GSK3beta
[18] = molecular target: Mitogen-activated protein kinase 8 (Homo sapiens, UniProt P45983); test: Inhibition of JNK1
Aurora kinase B = Aurora kinase B (Homo sapiens, UniProt Q96GD4); test: Inhibition of aurora B
[19] = molecular target: Cyclin-dependent kinase 2 (Homo sapiens, UniProt P24941); test: Inhibition of CDK2
[20] = molecular target: Cyclin-dependent kinase 1 (Homo sapiens, UniProt P06493); test: Inhibition of CDK1
[21] = molecular target: Mitogen-activated protein kinase 3 (Homo sapiens, UniProt P27361); test: Inhibition of ERK1
[22] = molecular target: Serine/threonine-protein kinase Chk1 (Homo sapiens, UniProt O14757); test: Inhibition of CHK1
[23] = molecular target: Protein kinase C theta type (Homo sapiens, UniProt Q04759); test: Inhibition of PKCtheta
[24] = molecular target: Inhibitor of nuclear factor kappa-B kinase subunit beta (Homo sapiens, UniProt O14920); test: Inhibition of IKKbeta
Insulin receptor = Insulin receptor (Homo sapiens, UniProt P06213); test: Inhibition of IR
[25] = molecular target: Mast/stem cell growth factor receptor Kit (Homo sapiens, UniProt P10721); test: Inhibition of c-Kit
Angiopoietin-1 receptor = Angiopoietin-1 receptor (Homo sapiens, UniProt Q02763); test: Inhibition of TIE2
[26] = molecular target: Receptor tyrosine-protein kinase erbB-2 (Homo sapiens, UniProt P04626); test: Inhibition of HER2
[27] = molecular target: Platelet-derived growth factor receptor alpha (Homo sapiens, UniProt P16234); test: Inhibition of PDGFRalpha
[28] = molecular target: Platelet-derived growth factor receptor beta (Homo sapiens, UniProt P09619); test: Inhibition of PDGFRbeta
[29] = molecular target: Fibroblast growth factor receptor 3 (Homo sapiens, UniProt P22607); test: Inhibition of FGFR3
[30] = molecular target: RAF proto-oncogene serine/threonine-protein kinase (Homo sapiens, UniProt P04049); test: Inhibition of c-RAF
[31] = molecular target: Dual specificity mitogen-activated protein kinase kinase 1 (Homo sapiens, UniProt Q02750)
[32] = molecular target: Proto-oncogene tyrosine-protein kinase Src (Homo sapiens, UniProt P12931)
[33] = molecular target: Hepatocyte growth factor receptor (Homo sapiens, UniProt P08581)
Rattus norvegicus [34] = test: Inhibition of BRAF in human HT-29 cells xenografted nude rat tumor assessed as reduction of ERK phosphorylation at 25 mg/kg, po; format: functional, organism-based; design: dose 25 mg/kg

T1 sequence (P15056 2-766 V600E limits assumed): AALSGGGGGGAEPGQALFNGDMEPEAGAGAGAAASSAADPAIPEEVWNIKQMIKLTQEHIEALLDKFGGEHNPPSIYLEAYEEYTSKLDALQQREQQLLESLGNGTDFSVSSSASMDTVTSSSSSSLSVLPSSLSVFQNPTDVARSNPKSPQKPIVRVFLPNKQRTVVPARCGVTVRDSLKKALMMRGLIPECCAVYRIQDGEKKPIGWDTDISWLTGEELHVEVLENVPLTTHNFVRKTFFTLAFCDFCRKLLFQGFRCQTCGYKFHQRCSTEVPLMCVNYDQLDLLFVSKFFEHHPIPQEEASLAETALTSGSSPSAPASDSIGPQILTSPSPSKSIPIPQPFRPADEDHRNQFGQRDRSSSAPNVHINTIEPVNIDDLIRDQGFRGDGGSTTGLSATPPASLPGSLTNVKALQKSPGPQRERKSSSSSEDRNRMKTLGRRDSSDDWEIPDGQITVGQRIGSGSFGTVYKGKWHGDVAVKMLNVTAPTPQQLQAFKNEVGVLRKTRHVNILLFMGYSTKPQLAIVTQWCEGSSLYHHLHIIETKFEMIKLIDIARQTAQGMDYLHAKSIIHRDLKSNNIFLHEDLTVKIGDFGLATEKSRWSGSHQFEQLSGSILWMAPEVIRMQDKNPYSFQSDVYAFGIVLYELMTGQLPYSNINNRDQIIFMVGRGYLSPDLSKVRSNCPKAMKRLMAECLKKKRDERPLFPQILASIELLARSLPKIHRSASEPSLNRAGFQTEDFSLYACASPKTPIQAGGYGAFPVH
Sequence of Vascular endothelial growth factor receptor 2 (P35968 whole entry): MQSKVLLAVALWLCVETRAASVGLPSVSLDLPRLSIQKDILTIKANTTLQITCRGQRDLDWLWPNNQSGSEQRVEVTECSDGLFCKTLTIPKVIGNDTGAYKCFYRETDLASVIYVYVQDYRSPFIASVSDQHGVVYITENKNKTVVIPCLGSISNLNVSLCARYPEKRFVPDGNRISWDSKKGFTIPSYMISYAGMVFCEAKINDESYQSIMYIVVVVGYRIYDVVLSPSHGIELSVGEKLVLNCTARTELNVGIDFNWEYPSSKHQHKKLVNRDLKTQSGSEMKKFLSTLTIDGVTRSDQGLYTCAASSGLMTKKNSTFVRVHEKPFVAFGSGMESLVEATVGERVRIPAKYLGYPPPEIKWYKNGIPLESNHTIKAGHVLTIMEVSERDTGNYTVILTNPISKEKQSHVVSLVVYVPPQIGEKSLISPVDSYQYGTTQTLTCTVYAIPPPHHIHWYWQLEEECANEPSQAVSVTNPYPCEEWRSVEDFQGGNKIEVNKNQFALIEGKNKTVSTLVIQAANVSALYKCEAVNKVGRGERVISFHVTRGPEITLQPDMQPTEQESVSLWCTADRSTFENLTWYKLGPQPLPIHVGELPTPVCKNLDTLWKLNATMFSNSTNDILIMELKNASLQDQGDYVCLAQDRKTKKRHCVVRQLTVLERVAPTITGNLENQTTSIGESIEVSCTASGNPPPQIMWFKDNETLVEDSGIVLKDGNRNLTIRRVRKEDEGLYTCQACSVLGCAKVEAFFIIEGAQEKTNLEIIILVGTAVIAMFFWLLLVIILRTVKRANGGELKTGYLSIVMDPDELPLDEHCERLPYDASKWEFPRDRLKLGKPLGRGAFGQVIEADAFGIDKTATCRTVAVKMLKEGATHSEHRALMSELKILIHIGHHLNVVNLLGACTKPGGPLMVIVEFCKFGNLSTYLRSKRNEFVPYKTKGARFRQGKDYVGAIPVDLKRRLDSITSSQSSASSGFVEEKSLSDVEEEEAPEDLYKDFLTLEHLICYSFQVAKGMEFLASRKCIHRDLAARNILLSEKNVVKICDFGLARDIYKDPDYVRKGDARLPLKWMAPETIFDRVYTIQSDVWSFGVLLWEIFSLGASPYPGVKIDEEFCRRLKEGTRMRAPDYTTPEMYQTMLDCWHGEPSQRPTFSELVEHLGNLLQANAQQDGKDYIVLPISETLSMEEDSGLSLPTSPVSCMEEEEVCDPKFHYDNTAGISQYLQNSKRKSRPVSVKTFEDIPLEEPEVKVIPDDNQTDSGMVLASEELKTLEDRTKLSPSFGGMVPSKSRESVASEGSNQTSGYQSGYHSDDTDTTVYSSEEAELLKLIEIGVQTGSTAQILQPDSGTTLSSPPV
Sequence of Inhibitor of nuclear factor kappa-B kinase subunit beta (O14920 whole entry): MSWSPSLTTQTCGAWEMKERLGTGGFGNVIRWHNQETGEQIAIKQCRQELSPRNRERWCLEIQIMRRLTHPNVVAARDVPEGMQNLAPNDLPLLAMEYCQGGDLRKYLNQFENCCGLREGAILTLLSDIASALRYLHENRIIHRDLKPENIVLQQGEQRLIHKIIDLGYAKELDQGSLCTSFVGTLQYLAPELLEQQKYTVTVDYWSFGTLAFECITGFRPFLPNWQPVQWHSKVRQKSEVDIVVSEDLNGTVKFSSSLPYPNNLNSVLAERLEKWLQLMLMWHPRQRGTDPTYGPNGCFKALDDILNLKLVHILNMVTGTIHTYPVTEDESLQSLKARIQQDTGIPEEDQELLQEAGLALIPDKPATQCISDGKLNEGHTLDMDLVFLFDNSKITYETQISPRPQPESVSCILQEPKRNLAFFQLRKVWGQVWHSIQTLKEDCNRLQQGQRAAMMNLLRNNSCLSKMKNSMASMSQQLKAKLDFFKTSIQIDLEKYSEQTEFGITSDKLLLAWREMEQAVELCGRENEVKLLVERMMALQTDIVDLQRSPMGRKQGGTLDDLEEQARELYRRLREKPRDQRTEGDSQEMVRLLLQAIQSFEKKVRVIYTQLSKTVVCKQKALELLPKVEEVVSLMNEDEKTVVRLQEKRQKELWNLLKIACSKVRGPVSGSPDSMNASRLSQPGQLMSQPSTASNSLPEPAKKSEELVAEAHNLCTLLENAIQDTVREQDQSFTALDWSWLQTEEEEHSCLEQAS
Sequence of Mast/stem cell growth factor receptor Kit (P10721 whole entry): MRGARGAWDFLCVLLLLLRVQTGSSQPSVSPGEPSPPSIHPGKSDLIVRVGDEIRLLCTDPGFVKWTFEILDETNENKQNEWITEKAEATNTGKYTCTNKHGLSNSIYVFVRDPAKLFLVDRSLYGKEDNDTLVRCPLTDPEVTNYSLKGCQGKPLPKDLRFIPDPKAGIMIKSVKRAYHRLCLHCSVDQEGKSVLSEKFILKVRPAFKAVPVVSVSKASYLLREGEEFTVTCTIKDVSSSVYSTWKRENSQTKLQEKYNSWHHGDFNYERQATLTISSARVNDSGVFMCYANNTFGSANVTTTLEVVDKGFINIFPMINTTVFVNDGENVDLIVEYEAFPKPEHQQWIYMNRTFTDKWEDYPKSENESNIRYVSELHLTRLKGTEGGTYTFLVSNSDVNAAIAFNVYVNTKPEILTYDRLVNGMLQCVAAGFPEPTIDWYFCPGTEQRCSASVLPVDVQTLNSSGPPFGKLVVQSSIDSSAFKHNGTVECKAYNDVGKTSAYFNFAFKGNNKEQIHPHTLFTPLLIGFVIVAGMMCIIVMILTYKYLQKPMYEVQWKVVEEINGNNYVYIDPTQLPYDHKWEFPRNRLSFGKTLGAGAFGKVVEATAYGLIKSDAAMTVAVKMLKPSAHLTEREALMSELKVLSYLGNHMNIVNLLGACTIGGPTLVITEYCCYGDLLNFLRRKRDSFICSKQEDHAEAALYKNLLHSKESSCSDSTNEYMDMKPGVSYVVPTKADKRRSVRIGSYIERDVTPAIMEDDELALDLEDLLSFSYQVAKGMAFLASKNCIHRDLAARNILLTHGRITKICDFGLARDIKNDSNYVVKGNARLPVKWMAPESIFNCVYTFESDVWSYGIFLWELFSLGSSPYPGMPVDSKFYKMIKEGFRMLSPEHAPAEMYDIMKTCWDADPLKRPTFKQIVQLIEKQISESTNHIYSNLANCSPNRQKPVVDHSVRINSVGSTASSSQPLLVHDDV
Sequence of Dual specificity mitogen-activated protein kinase kinase 1 (Q02750 whole entry): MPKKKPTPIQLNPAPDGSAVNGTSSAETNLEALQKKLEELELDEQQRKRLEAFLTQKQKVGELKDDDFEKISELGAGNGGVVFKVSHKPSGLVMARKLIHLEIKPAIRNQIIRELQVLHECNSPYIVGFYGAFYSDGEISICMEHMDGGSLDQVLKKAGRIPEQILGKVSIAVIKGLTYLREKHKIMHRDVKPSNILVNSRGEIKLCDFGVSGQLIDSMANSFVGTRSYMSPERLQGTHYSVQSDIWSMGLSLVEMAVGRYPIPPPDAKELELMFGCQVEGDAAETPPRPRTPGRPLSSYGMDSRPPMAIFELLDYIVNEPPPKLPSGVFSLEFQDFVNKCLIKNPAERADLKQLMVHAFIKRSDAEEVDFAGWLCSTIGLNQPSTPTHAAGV
Sequence of RAF proto-oncogene serine/threonine-protein kinase (P04049 whole entry): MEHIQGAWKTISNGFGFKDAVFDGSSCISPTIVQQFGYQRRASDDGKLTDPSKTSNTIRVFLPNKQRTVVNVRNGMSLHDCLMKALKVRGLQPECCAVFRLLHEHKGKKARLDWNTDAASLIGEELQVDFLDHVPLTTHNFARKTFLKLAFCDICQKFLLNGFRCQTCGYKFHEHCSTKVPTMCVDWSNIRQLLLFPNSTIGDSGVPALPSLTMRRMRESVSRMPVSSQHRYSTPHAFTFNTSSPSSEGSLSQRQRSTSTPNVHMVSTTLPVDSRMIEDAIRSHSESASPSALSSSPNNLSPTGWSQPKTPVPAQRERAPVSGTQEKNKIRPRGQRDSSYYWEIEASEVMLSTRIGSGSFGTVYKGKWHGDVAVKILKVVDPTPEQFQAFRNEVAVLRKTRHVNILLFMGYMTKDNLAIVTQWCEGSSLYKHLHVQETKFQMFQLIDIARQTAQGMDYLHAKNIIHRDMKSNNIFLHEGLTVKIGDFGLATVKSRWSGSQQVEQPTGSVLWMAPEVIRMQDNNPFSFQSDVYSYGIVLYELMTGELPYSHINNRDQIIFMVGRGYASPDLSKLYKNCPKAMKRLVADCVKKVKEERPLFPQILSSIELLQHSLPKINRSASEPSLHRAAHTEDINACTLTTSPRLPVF

SMILES: CC(=O)Nc1nc2cnc(Nc3cc(NC(=O)c4cccc(CC(C)(C)C#N)c4)ccc3C)nc2s1
- microsomal CLint at 1 µM [1]: 56 µL/min/mg
- pIC50 [2]: 6.82
- pIC50 [3]: 6.52
- pIC50 [4]: 7.00

SMILES: CN(c1ccc(F)c(NC(=O)c2cccc(OC(C)(C)C#N)c2Cl)c1)c1ccc2nc(NC(=O)C3CC3)sc2n1.O.O=S(=O)(O)c1ccccc1
- Activity (Rattus norvegicus [5]): Non-toxic
- T/C (HT-29): -70%
- Cmax [6]: 660 ng/mL
- bioavailability [7]: 38.4%
- AUC(0-t) at 24 h [8]: 5770 ng·h/mL
- MRT [9]: 5.26 h
- MRT [10]: 3.13 h
- AUC(0-t) at 24 h [11]: 600 ng·h/mL
- clearance [12]: 29.2 mL/min/kg
- Vd [13]: 5.52 L/kg
- solubility thermodynamic [14]: 37 µg/mL

SMILES: CN(c1ccc(F)c(NC(=O)c2cccc(OC(C)(C)C#N)c2Cl)c1)c1ccc2nc(NC(=O)C3CC3)sc2n1.O=S(=O)(O)O
- solubility thermodynamic [14]: 35 µg/mL

SMILES: CC(=O)Nc1nc2ccc(N(C)c3ccc(F)c(NC(=O)c4cccc(OC(C)(C)C#N)c4Cl)c3)nc2s1
- microsomal CLint at 1 µM [15]: 55 µL/min/mg
- microsomal CLint at 1 µM [1]: 45 µL/min/mg
- pIC50 [2]: 7.66

SMILES: CN(c1ccc(F)c(NC(=O)c2cccc(OC(C)(C)C#N)c2Cl)c1)c1ccc2nc(NC(=O)C3CC3)sc2n1 [listing 1 of 2 here]
- pIC50 [16]: < 5.00
- solubility thermodynamic [14]: 18 µg/mL
- pIC50 [17]: < 5.00
- pIC50 [18]: < 5.00
- pIC50 (Aurora kinase B): 5.40
- pIC50 [19]: < 5.00
- pIC50 [20]: 5.43
- pIC50 [21]: < 5.00
- pIC50 [22]: < 5.00
- pIC50 [23]: < 5.00
- pIC50 [24]: 5.09
- pIC50 (Insulin receptor): < 5.00
- pIC50 [25]: 6.37
- pIC50 (Angiopoietin-1 receptor): 6.08
- pIC50 [26]: 5.92
- pIC50 [27]: 7.37
- pIC50 [28]: 7.04
- pIC50 [29]: 7.07
- pIC50 [30]: 7.64
- microsomal CLint at 1 µM [15]: 32 µL/min/mg
- microsomal CLint at 1 µM [1]: 25 µL/min/mg
- pIC50 [31]: 6.00
- pIC50 [32]: 6.89
- pIC50 [33]: < 5.00

SMILES: CC(C)(C#N)Oc1cccc(C(=O)Nc2cc(Nc3ccc4nc(NC(=O)C5CC5)sc4n3)ccc2F)c1Cl
- solubility thermodynamic [14]: 0.91 µg/mL
- pIC50 [2]: 7.06
- pIC50 [3]: 7.19
- pIC50 [4]: 7.82

SMILES: CC(=O)Nc1nc2cnc(Nc3cc(NC(=O)c4cccc(CCC#N)c4)ccc3C)nc2s1
- microsomal CLint at 1 µM [1]: 35 µL/min/mg
- pIC50 [2]: < 6.30
- pIC50 [3]: 6.39
- pIC50 [4]: 7.29

SMILES: CC(=O)Nc1nc2cnc(Nc3cc(NC(=O)c4cccc(C5(C#N)CC5)c4Cl)ccc3C)nc2s1
- microsomal CLint at 1 µM [1]: 73 µL/min/mg
- pIC50 [2]: 6.92
- pIC50 [3]: 6.47
- pIC50 [4]: 7.04

SMILES: CN(c1ccc(F)c(NC(=O)c2cccc(OC(C)(C)C#N)c2Cl)c1)c1ccc2nc(NC(=O)C3CC3)sc2n1.Cl
- solubility thermodynamic [14]: 31 µg/mL

SMILES: CC(=O)Nc1nc2ccc(N(C)c3ccc(F)c(NC(=O)c4cccc(OC(C)(C)C#N)c4)c3)nc2s1
- microsomal CLint at 1 µM [15]: 25 µL/min/mg
- microsomal CLint at 1 µM [1]: 22 µL/min/mg
- pIC50 [2]: 7.52

SMILES: CN(c1ccc(F)c(NC(=O)c2cccc(OC(C)(C)C#N)c2Cl)c1)c1ccc2nc(NC(=O)C3CC3)sc2n1 [listing 2 of 2 here]
- inhibition (Rattus norvegicus [34]): Active

SMILES: CC(=O)Nc1nc2cnc(Nc3cc(NC(=O)c4cccc(OC(C)(C)C#N)c4)ccc3C)nc2s1
- pIC50 [2]: 7.06
- pIC50 [3]: 6.29
- pIC50 [4]: 7.14
